We go through two compounds from patent US6436428B1, “Device and method for treating urinary incontinence in females” (Enhance Pharmaceuticals, Inc., priority 2000, dated 2002).

Data set [1] can be described thus: Plasma oxybutynin and desethyloxybutynin in rabbits with vaginal inserts. The format is in vivo, rabbit. The settings on record: for plasma concentration: days 1-7; for plasma values at all time periods (day 1-7): 5.0 mg/day vaginal insert. As to the method:
12 rabbits were separated into 4 groups of 3 rabbits each. Under pentobarbital anesthesia (25 mg/kg, iv) A cylinder-shaped, curved silastic insert was placed in the vagina of each rabbit. This was accomplished by the following: a midline laparotomy was performed and after transvaginal insertion the implant was anchored with a single 2.0 silk suture through the outer vaginal wall and knotted to a 1 cm section of a medical-grade tubing to avoid damage to the vaginal wall. The inserts in group one contained vehicle, the inserts in groups 2-4 were calculated to release oxybutynin at rates of 0.5 mg/day; 1 mg/day; and 5 mg/day respectively. The inserts remained in place for 7 days. Samples of blood (2 ml) were collected at 12:00 noon on days 1, 3, 5 and 7. After the last blood sample was obtained, each rabbit was sedated and cystometries were performed. Immediately after the cystometry, the rabbit was euthanized, the lower urinary tract including the vagina was removed and evaluated for irritation. In addition, the bladder was excised and weighed.
The samples of blood were frozen and subsequently analyzed. The oxybutynin and desethyloxybutynin concentrations were quantified.

The conditions of data set [2]: oral administration of oxybutynin; cited from earlier work.

For `CCNCC#CCOC(=O)C(O)(c1ccccc1)C1CCCCC1` (stereo not drawn) [N-desethyloxybutynin], the plasma concentration result in data set [1] (0.5 mg/day vaginal insert) and in data set [1] (1.0 mg/day vaginal insert) was “below the level of detection” in each case. Besides, the “plasma values at all time periods (day 1-7)” value in data set [1] is on record as “stable plasma values”. In data set [2], the “AUC (area under the plasma time concentration curve) of the metabolite relative to oxybutynin” value is given as 10-12 times. Moreover, the “peak blood concentration of the metabolite relative to oxybutynin” value in data set [2] was 6-9 times higher.

As for `CCN(CC)CC#CCOC(=O)C(O)(c1ccccc1)C1CCCCC1` (stereo not drawn) [oxybutynin, 4-diethylamino-2-butynylphenylcyclohexylglycolate], in data set [1] (0.5 mg/day vaginal insert), the “change of plasma concentration between day 1 and 3” value is given as “increase”; the “plasma concentration course between days 3 and 7” value is “stable concentration”. Moreover, in data set [1] (1.0 mg/day vaginal insert), the “change of plasma concentration between day 1 and 3” value was “increase”; the “plasma concentration course between days 3 and 7” value is given as “stable concentration”. The “plasma values at all time periods (day 1-7)” value in data set [1] is recorded as “stable plasma values”. Moreover, in data set [1] (vaginal inserts, FIG. 18), the “stable plasma concentration of 1.0 mg/day group relative to 0.5 mg/day group” value is given as “approximately twice” and the “stable plasma concentration of 5.0 mg/day group relative to 1.0 mg/day group” value was “approximately 4 fold”.
